The subject of test [1] is ischemic wound on the back region of rats. Kind of test: Ischemic H-shaped double flap wound model. Type of test: in vivo, rat. The procedure:
The effect of rhRLX on normal and ischemic wound healing in two rat models of dermal wound healing was evaluated. RhRLX in vehicle, or vehicle alone, was delivered by subcutaneous infusion to Sprague-Dawley rats using an implanted ALZET7 osmotic pump (Alza Corp., Mountain View, Calif.).
In the second model, a standardized ischemic, H-shaped, double flap wound was made on the back region. The area of surface necrosis was measured on day 14 and day 21.
In the third animal model, a standard ischemic wound (H-shaped, 8 cm long and 2 cm wide) was created on the back region of rats. Perforating branches of the central vein were cut to ensure that the wound was ischemic. The resulting wound is then ischemic, but not completely necrotic. On day 14 and day 21, the surface necrosis was measured. RhRlx treatment (0.2 mg/kg via minipump) reduced the surface necrotic area in the flap region, compared to vehicle treatment (at day 14: vehicle 195 mm^2, rhRlx 123 mm^2; at day 21 vehicle 180 mm^2, rhRlx 103 mm^2).

In test [2] the test system is human VEGF165, VEGF121, bFGF and HGF transcripts in human cardiac cells. Kind of test: Human cardiac cells: quantitative RT-PCR after relaxin treatment in vitro. Type of test: cell-based. The text has this:
Oligonucleotides were designed to rat or human bFGF, human VEGF165 amino acid or 121 amino acid isoforms, and their respective rat homologues (VEGF164 and VEGF120), and human HGF (for use with the PE Applied Biosystems “GeneAmp PCR System 9600”). Rat and human GAPDH primers and probes were purchased from BioSource International Inc. and PE Applied Biosystems, respectively. Tissue samples and monolayer cells were suspended in RNA STAT-60 (Tel-Test, Inc., Friendswood, Tex.) and processed following vendor instructions. Reverse transcription-polymerase chain reaction (RT-PCR) was performed using either rat or human total RNA as template. 150 ng of total RNA was used for the analysis of VEGF, bFGF and HGF mRNA expression; 10 ng of total RNA was used for GAPDH mRNA expression. Reverse transcription-polymerase chain reaction (RT-PCR) reagents were purchased from PE Biosystems (Foster City, Calif.).
To determine if the effects of relaxin observed in the rat were also seen in human cells, total RNA from cardiac cells was extracted following treatment of cells with 1, 10, and 100 ng/ml relaxin for 24 hours. Human cardiac cells were cultured for 24 hours either without or with relaxin (1-100 ng/ml). Untreated cells were incubated for the same 24 hour period under hypoxic (2% O2) conditions. Using 150 ng of total RNA for human VEGF and bFGF transcripts and 10 ng of total RNA for GAPDH transcripts, primer/probe sets were used to generate RT-PCR products for human VEGF 165aa and 121aa isoforns and human bFGF. Data were analyzed using Sequence Detector v1.6.3 software (Applied Biosystems/PE). VEGF and bFGF expression levels are graphed relative to GAPDH transcript levels. Data are shown as means±SEM, where n=3 per treatment group; *p<0.05; Student-Newman-Keuls test. […] Absolute baseline levels of bFGF mRNA transcripts expressed by these cells were approximately 2-fold greater than those of either the VEGF121 or the VEGF165 isoforms. Total RNA from cells incubated under hypoxic conditions was analyzed as a positive control for the stimulation of VEGF isoforms. As predicted, mRNA transcript levels for both VEGF isoforms increased 220% over untreated control levels following 24 hr exposure to hypoxia, as shown in FIG. 6. bFGF expression was not induced by hypoxia. […] Relaxin had no effect on cellular proliferation, as assessed by ^3H-thymidine incorporation, on cellular morphology, or on desmin or vimentin staining patterns.

Test [3] deals with female Swiss Webster mice. Kind of test: Matrigel assay of angiogenesis. It counts as in vivo, mouse. As to conditions: 100 ng/ml in Matrigel, s.c., three separate studies, vs vehicle. The procedure: Animals were purchased from Harlan Sprague Dawley (Indianapolis, Ind.) and were housed according to NIH guidelines. Protocols were in compliance with institutional guidelines. Matrigel (Collaborative Biomedical, Bedford, Mass.) was mixed with relaxin to a final concentration of 100 ng/ml, or mixed with the identical volume of citrate buffer, on ice. […] was injected subcutaneously into the flank of female Swiss Webster mice. At 11 days, the Matrigel plugs were harvested, fixed, and stained with H & E (hematoxylin and eosin) for assessment of new blood vessel ingrowth. Vessel growth was scored on a 0-5 scale: 0=no infiltration; 1=minor infiltration; 2 =3-5 cell layers infiltrating only margins of the plug; 3=5-10 cell layers infiltrating margins with some areas of deeper infiltration; <25% of plug infiltrated; 4=Many areas of deep cellular infiltration; 25-50% of plug infiltrated; 5=50-100% of plug infiltrated. Endothelial cells preferentially migrate into the basement membrane matrix.
The ability of relaxin to induce new blood vessel growth in vivo was tested in the murine Matrigel system for assessing angiogenesis. Passaniti et al. (1992) Lab. Invest. 67:519-528. […] At 10 days, Matrigel plugs were harvested, processed for histology, and H & E sections scored for vessel ingrowth in blinded fashion. […]

Consider 1 substance from patent US6723702B2, “Use of relaxin treat diseases related to vasoconstriction” (RAS Medical, Inc., priority 2000, dated 2004).

With “rhRLX: recombinant human relaxin, identical in amino acid sequence to the product of the human H2 gene; A chain of 24, B chain of 29 amino acids”, the “surface necrotic area in the flap region” value is 123 mm^2 in test [1] (0.2 mg/kg via minipump, day 14); 103 mm^2 in test [1] (0.2 mg/kg via minipump, day 21); 123 mm^2 in test [1] (Example 4, day not stated). Moreover, the “expression of NO synthase on vascular endothelium” value in test [1] (immunohistochemical staining, systemic treatment) is “enhances”. The “Basic FGF expression, maximum elevation over baseline” value in test [2] (100 ng/ml, 24 hours) is reported as 2.2 fold. Further, in test [2] (100 ng/ml, 24 hours), the “VEGF121 mRNA, maximum increase in expression over untreated controls” value was 3 fold. The “VEGF165 mRNA, maximum increase in expression over untreated controls” value in test [2] (100 ng/ml, 24 hours) was 2.3 fold. In addition, the “Transcripts for human HGF” value in test [2] (untreated vs relaxin treated cells) is “no difference in expression”. Also, in test [3], the “vessel ingrowth into Matrigel plugs” value was “significantly more vessel ingrowth”.
